Experimental data published in ChEMBL document CHEMBL1201862, “PubChem BioAssay data set” (2004).
Calls of active or inactive are those of the source.

Tests used:
[1] = target: DNA dC->dU-editing enzyme APOBEC-3A (Homo sapiens, UniProt P31941); assay: A3A deaminase inhibition for selectivity – biochemical, dose response (AID 504722); type: functional
[2] = target: DNA dC->dU-editing enzyme APOBEC-3G (Homo sapiens, UniProt Q9HC16); assay: Dose Response confirmation of small molecule APOBEC3G DNA Deaminase Inhibitors via a fluorescence-based single-stranded DNA deaminase assay. [Related pubchem assays (depositor defined):AID493012, AID493028]; type: functional
[3] = target: T1, Rac GTPase-activating protein 1 (Homo sapiens, UniProt Q9H0H5); assay: blockers of MgcRacGAP-driven Rac1 GTP hydrolysis – biochemical, ADP Hunter fluorescence, primary and confirmatory, confirmation (AID 624330); type: functional
T1 sequence (Q9H0H5 whole entry): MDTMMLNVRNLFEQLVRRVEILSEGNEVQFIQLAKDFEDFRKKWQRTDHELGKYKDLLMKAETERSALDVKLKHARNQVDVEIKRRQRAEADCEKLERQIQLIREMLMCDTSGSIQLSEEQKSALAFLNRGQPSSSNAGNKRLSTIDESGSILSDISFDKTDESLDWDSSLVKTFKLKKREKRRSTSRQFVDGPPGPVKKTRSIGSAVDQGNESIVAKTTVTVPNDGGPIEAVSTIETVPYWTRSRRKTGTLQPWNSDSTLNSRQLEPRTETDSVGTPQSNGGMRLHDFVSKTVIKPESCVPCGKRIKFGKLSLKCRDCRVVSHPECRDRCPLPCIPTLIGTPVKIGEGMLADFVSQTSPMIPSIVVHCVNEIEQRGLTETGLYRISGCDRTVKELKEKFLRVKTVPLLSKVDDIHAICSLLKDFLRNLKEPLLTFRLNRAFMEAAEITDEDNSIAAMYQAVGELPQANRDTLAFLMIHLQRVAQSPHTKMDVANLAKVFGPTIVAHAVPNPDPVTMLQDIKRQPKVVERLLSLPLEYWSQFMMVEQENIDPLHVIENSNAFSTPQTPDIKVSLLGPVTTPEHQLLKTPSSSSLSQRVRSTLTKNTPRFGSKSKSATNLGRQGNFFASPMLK

[4] = A cytotoxicity screen of small molecule inhibitors of the PhoP region in Salmonella typhi identified in the primary screen. [Related pubchem assays: 1850, 1864, 1985 ]; type: functional
[5] = tested on: Streptococcus sp. 'group A'; assay: Streptococcus pyogenes SK(-)GAS viability under kanamycin – luminescence, BacTiterGlo, confirmation, counter-screen for streptokinase expression inhibitor project, dose response (AID 1900); type: functional, organism-based
[6] = tested on: Streptococcus; assay: GAS UMAA2166 growth inhibition – luminescence, BacTiterGlo, counter-screen for streptokinase expression inhibitor project, dose response (AID 1915); type: functional, organism-based;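 note: potency for reduction of bacterial viability or growth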
[7] = target: Beta-galactosidase (Escherichia coli, UniProt Q8VNN2); assay: detection-enzyme interference by beta-gal modulators – biochemical, E. coli enzyme, set 3, artefact control for CCR6 antagonist project, dose response (AID 504712); type: functional
[8] = tested on: HEK293; assay: inhibition of NOD1-driven NF-kB reporter – cell-based, luminescence, uHTS, primary screen (AID 1578); type: functional; conditions: Homo sapiens
[9] = tested on: HEK293; assay: cells; type: functional, cell-based; conditions: Homo sapiens
[10] = tested on: HEK293; assay: cells; type: functional, cell-based; conditions: Homo sapiens; remark: listed apart in the source
[11] = target: Nucleotide-binding oligomerization domain-containing protein 2 (Homo sapiens, UniProt Q9HC29); assay: inhibition of NOD2-driven NF-kB reporter – cell-based, luminescence, uHTS, HEK293 (AID 1566); type: functional
[12] = tested on: HEK293; assay: NOD2 signaling inhibitors in MDP-stimulated cells, cell-based, uHTS, luminescence (AID 2001); type: functional; conditions: Homo sapiens
[13] = tested on: HEK293; assay: cells; type: functional, cell-based; conditions: Homo sapiens; remark: listed apart in the source
[14] = target: T2, Eukaryotic translation initiation factor 2-alpha kinase 3 (Homo sapiens, UniProt Q9NZJ5); assay: Dose response cell-based high-throughput screening assay to measure PERK inhibition. [Related pubchem assays: 1416 ]; type: functional
T2 sequence (Q9NZJ5 whole entry): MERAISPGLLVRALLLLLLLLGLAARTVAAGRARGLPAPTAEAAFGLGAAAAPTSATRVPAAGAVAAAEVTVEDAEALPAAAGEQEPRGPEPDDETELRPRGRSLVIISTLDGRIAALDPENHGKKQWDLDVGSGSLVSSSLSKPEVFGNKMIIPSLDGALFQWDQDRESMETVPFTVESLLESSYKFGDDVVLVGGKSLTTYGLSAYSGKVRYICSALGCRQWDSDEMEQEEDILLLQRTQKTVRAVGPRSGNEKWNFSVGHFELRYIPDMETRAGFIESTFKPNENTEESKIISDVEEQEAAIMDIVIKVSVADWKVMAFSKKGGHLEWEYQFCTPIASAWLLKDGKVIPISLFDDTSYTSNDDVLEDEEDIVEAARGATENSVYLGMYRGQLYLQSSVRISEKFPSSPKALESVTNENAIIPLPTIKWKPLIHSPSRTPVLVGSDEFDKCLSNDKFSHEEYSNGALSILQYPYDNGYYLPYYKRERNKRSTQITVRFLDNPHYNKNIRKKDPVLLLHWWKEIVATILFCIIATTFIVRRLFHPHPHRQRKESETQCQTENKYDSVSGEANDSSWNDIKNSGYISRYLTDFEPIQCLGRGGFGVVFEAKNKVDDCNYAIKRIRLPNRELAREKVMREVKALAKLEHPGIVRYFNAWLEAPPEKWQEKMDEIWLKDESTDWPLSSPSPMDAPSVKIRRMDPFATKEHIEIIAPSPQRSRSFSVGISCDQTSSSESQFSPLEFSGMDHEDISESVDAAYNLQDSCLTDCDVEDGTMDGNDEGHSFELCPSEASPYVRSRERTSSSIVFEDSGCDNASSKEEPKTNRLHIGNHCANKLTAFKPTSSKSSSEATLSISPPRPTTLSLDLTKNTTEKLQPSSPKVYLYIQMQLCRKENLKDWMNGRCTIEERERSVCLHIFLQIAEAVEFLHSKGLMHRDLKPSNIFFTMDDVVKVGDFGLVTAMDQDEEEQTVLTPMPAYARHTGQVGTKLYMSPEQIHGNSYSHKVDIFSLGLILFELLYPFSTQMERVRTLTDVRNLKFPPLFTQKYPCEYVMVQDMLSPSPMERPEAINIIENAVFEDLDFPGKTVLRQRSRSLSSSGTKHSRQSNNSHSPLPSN

[15] = target: T2, Eukaryotic translation initiation factor 2-alpha kinase 3; assay: Counterscreen assay for PERK inhibitors: Dose response cell-based high throughput screening assay to measure inhibition of PERK at 6 hours. [Related pubchem assays: 1522, 1416 ]; type: functional
[16] = target: Eukaryotic translation initiation factor 4E (Mus musculus, UniProt P63073); assay: blockers of eIF4G binding by eIF4E – biochemical, TR-FRET, dose response (AID 855); type: functional;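 note: potency for disrupting eIF4E binding to eIF4GI seen as loss of FRET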
[17] = Trypanosoma cruzi growth suppression in host cells – NIH3T3 host cells, beta-gal luminescence, confirmation (AID 2044); type: functional, cell-based;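 note: intracellular parasites grown in NIH/3T3 mouse fibroblasts as host cells; luminescent beta-galactosidase reporter signal from transgenic T. cruzi replicating inside host cells; inhibitors lower the luminescence signal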
[18] = NIH3T3 cell viability loss – ATP luminescence, mouse fibroblasts, counter-screen, dose response (AID 2010); type: functional, cell-based;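 note: cells exposed to compound for about 90 hours before reading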
[19] = target: T3, Short transient receptor potential channel 4 (Mus musculus, UniProt Q9QUQ5); assay: potentiation of DAMGO-evoked TRPC4 calcium signal – cell-based, HEK293 TRPC4/mu-opioid, Fluo-4 calcium, EC20 DAMGO, dose response (AID 434941); type: functional
T3 sequence (Q9QUQ5 whole entry): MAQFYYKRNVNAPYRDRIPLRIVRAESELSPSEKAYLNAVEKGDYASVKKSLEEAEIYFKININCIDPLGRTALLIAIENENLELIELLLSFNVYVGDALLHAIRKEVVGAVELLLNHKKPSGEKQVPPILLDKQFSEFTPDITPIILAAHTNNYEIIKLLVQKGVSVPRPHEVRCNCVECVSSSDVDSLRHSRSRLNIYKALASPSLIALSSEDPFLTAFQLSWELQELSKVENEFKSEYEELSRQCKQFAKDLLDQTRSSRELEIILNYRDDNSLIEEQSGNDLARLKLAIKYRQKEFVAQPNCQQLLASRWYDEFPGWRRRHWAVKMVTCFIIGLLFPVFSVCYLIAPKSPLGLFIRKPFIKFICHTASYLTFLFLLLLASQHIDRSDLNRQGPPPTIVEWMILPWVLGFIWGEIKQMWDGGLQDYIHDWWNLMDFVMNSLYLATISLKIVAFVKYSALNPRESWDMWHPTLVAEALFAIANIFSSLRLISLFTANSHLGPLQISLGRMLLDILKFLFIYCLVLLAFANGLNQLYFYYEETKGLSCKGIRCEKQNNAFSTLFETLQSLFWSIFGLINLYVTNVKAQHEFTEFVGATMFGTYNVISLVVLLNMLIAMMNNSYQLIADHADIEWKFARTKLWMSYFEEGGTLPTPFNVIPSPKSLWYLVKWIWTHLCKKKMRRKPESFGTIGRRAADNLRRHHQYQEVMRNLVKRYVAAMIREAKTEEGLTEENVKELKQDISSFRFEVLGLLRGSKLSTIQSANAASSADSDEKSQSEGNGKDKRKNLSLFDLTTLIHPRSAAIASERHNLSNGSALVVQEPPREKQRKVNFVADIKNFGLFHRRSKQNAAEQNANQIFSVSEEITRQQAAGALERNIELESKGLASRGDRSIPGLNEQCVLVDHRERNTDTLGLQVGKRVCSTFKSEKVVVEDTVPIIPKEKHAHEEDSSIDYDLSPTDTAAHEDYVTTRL

[20] = target: T3, Short transient receptor potential channel 4; assay: calcium entry via TRPC4 opening agents – cell-based, HEK293 TRPC4/mu-opioid, Fluo-4 calcium, dose response (AID 434937); type: functional
[21] = target: Eukaryotic translation initiation factor 4H (Homo sapiens, UniProt Q15056); assay: eIF4H binding inhibition – biochemical, uHTS, fluorescence polarization, translation initiation inhibitor project, primary screen (AID 2012)
[22] = target: Polyadenylate-binding protein 1 (Homo sapiens, UniProt P11940); assay: blockers of PABP interaction with poly(A) – biochemical, fluorescence polarization, […] (AID 2014)
[23] = target: T4, Carboxy-terminal domain RNA polymerase II polypeptide A small phosphatase 1 (Homo sapiens, UniProt Q9GZU7); assay: CTDSP1 inhibitors, concentration-response, biochemical, absorbance readout, ultra-high-throughput screen actives (AID 540297); type: functional
T4 sequence (Q9GZU7 whole entry): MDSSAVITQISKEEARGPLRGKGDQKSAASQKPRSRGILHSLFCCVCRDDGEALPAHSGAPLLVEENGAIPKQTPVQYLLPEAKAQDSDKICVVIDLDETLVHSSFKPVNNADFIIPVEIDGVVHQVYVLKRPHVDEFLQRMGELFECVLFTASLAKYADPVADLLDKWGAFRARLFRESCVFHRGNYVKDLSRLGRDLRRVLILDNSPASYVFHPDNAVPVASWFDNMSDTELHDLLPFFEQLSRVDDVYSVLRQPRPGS

[24] = target: Hexokinase (Trypanosoma brucei, UniProt Q38C41); assay: Confirmation assay for inhibitors of Trypanosoma brucei hexokinase 1-Analogue-first series. [Related pubchem assays (depositor defined):AID1430, AID1632, AID2516, AID2560, AID2579, AID2600, AID449725, AID492951]; type: functional
[25] = M. tuberculosis growth inhibition, HTS (AID 449762); type: functional
[26] = target: Trypsin (Sus scrofa, UniProt P00761); assay: trypsin protease activity blockade – biochemical, quenched peptide fluorescence, cherry-pick, selectivity assay for Rce1 protease inhibitor project, dose response (AID 488789)
Trypsin, sequence (P00761 whole entry): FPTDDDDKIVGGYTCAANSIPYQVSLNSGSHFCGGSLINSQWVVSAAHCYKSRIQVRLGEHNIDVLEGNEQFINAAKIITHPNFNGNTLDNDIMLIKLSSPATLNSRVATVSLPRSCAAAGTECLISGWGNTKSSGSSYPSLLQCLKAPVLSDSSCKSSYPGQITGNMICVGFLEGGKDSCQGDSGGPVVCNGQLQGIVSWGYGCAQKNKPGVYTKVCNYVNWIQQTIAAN

DNA dC->dU-editing enzyme APOBEC-3A, sequence (P31941 whole entry): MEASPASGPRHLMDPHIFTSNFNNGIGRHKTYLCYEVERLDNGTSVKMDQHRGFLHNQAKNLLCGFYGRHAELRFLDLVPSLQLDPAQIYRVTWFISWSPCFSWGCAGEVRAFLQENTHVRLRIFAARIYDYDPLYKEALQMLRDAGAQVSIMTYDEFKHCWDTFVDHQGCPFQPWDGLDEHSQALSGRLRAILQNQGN
Beta-galactosidase, sequence (Q8VNN2 whole entry): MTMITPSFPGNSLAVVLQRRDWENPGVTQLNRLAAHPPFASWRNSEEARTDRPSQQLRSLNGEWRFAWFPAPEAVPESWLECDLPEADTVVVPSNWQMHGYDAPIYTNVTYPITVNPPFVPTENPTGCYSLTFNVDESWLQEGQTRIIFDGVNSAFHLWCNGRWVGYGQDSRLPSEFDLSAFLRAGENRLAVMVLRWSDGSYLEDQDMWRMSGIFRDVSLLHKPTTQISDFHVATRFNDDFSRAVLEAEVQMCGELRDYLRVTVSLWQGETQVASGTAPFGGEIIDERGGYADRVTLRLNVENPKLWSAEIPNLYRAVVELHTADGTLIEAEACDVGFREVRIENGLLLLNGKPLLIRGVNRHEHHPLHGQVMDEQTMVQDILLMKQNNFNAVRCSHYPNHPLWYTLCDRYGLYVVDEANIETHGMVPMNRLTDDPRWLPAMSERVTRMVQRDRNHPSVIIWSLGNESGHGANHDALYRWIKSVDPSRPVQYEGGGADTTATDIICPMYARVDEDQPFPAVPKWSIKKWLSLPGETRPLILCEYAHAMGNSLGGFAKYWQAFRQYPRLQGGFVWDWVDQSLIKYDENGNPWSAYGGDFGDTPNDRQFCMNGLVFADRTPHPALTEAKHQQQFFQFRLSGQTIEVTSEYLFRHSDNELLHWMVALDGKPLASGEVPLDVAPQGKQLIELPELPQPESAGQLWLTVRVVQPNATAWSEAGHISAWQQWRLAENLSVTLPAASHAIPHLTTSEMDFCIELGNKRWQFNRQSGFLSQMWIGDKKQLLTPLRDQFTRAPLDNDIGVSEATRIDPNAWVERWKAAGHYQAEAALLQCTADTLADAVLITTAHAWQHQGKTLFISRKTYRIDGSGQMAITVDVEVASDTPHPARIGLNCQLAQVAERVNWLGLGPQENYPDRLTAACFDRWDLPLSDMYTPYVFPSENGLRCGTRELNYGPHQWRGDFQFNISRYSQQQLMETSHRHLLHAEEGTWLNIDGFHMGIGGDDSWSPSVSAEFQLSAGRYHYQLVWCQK
Nucleotide-binding oligomerization domain-containing protein 2, sequence (Q9HC29 whole entry, the tested form may be a part): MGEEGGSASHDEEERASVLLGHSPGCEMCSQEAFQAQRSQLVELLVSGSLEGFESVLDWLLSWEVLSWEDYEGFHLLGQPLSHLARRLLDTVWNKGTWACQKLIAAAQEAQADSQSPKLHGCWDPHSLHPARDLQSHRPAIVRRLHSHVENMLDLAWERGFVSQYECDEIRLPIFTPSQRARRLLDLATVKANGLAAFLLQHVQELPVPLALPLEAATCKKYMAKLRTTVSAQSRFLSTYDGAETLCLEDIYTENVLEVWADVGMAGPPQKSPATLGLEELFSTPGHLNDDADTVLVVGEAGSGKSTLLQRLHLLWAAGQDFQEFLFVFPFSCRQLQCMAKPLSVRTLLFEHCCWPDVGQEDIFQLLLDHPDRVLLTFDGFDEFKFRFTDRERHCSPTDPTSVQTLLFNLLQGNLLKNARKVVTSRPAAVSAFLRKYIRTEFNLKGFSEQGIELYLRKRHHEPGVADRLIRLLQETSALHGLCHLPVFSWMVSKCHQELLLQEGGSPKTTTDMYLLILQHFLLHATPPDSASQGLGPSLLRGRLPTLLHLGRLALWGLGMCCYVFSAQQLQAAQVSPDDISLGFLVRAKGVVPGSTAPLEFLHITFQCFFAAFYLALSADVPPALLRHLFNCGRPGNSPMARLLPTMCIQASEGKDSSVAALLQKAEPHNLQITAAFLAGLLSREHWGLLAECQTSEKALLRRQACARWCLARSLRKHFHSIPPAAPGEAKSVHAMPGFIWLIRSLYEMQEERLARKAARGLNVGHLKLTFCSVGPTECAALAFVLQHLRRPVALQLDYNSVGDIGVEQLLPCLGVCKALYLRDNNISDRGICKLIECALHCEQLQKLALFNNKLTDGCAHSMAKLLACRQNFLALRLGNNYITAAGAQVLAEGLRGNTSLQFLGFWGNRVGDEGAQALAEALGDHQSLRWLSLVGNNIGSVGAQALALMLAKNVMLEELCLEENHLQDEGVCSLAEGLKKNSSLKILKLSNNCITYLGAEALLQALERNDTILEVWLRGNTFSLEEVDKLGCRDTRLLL
Eukaryotic translation initiation factor 4E, sequence (P63073 whole entry): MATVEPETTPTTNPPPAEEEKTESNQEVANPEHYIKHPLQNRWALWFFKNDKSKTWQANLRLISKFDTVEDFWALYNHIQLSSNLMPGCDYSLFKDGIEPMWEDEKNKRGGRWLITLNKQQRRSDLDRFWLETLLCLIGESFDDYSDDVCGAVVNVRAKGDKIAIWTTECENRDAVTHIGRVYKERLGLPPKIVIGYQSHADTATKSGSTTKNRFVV
DNA dC->dU-editing enzyme APOBEC-3G, sequence (Q9HC16 whole entry): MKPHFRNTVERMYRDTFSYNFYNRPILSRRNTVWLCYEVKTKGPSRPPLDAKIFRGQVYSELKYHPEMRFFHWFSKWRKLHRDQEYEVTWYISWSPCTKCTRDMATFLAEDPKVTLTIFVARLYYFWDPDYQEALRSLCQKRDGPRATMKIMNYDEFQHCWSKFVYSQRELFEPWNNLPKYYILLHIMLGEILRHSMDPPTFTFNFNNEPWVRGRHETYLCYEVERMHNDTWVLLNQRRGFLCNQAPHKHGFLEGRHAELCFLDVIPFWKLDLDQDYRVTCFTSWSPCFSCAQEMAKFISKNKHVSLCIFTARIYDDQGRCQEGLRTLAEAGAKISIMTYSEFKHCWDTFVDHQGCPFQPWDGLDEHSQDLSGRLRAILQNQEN
Polyadenylate-binding protein 1, sequence (P11940 whole entry, the tested form may be a part): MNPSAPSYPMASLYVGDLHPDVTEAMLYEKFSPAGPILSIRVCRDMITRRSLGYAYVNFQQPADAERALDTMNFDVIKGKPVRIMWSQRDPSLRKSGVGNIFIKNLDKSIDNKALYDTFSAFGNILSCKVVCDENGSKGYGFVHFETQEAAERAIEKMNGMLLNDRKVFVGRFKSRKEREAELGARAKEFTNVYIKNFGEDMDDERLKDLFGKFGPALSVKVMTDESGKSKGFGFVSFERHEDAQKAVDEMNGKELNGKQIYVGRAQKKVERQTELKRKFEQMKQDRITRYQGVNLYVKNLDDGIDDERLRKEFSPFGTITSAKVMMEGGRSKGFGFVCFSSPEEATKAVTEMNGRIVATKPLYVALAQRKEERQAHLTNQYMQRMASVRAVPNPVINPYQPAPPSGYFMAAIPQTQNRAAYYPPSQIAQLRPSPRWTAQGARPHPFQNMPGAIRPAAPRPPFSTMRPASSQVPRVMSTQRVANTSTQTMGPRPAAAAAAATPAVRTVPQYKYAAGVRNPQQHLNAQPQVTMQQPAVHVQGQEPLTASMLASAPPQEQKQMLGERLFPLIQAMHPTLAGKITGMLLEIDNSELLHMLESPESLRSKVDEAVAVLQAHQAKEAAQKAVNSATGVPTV
Hexokinase, sequence (Q38C41 whole entry): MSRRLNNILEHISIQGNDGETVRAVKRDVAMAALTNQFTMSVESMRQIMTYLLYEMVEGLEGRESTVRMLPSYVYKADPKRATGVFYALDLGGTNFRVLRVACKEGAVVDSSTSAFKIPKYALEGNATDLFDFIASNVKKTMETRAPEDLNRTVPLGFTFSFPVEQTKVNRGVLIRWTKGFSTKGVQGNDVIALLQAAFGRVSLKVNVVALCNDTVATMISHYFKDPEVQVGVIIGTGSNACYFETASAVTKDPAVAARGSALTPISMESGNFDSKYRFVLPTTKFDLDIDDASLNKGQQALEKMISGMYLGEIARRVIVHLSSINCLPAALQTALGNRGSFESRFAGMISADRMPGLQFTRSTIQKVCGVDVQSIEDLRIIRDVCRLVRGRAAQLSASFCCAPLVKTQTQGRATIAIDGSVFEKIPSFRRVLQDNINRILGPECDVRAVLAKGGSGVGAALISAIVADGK

COc1cccc(/C=N/n2c(S)nnc2-c2[nH]nc3c2CCC3)c1O
IC50 [1]: > 100 µM (inactive)
IC50 [2]: 2.48 µM (active)
IC50 [3]: 53.9 µM (active)

CCN(CC(=O)NC(C)(C)C)C(=O)COc1c(Cl)cc(Cl)c2ccc(C)nc12
EC50 [4]: > 50 µM (active)
EC50 [5]: 1.45 µM (active)
EC50 [6]: 6.5 µM (active)
IC50 [7]: > 66.6 µM (inactive)

CCOc1ccc(-n2c(C)c(C(C)=O)c3cc(O)ccc32)cc1
EC50 [8]: > 20 µM (inactive)
IC50 [9]: 0.451 µM (active)
IC50 [10]: > 20 µM (inactive)
EC50 [11]: > 20 µM (inactive)
IC50 [12]: 0.875 µM (active)
IC50 [13]: > 20 µM (inactive)

Cc1ccc2c(c1C)NC(C)CC2C (stereo not given)
EC50 [14]: > 55.7 µM (not active)
EC50 [15]: > 55.7 µM (not active)

O=C1c2ccccc2C(=O)N1Cc1nc2ccccc2c(=O)n1-c1ccccn1
IC50 [16]: > 64 µM (inactive)

CC1Cc2ccccc2N1C(=O)CSc1nc2c(c(=O)n(C)c(=O)n2C)n1Cc1ccccc1 (stereo not given)
EC50 [17]: 4.07 µM (active)
EC50 [18]: > 60 µM (not active)
EC50 [19]: 0.15 µM (active)
EC50 [20]: 2.11 µM (active)

CN(C)CCCOc1cccc(Cl)c1
EC50 [19]: 0.03 µM (active)
EC50 [20]: 0.06 µM (active)

O=C(NC1CCCCCCC1)c1ccc2c(c1)OCO2
IC50 [16]: > 64 µM (inactive)

O=S(=O)([O-])CCC[n+]1ccc(Oc2ccccc2)cc1
IC50 [21]: 48.3 µM (active)
IC50 [22]: 4.32 µM (active)
IC50 [23]: 12.9 µM (active)

Cc1cc(OCC(=O)Nc2ccncc2)cc(C)c1Cl
EC50 [8]: 2.46 µM (active)
IC50 [9]: 4.41 µM (active)
IC50 [10]: 12.3 µM (active)
EC50 [11]: 8.48 µM (active)
IC50 [12]: 6.09 µM (active)
IC50 [13]: > 20 µM (inactive)

CCOC(=O)Cn1sc2ccccc2c1=O
IC50 [24]: 12.5 µM (active)

Cc1nn(-c2ccccc2)c(S)c1/C=N/CCC/N=C/c1c(C)nn(-c2ccccc2)c1S
IC50 [25]: > 100 µM (active)
IC50 [1]: > 100 µM (inactive)
IC50 [2]: 5.47 µM (active)

CCCc1nc2ccccc2c(=O)n1N
EC50 [14]: > 55.7 µM (not active)
EC50 [15]: > 55.7 µM (not active)

COc1nc(-c2ccccc2)ccc1-c1noc(-c2ccccc2F)n1
AC50 [26]: > 100 µM (inactive)

CC(C)Cc1nnc(NC(=O)c2cc([N+](=O)[O-])ccc2N2CCOCC2)s1
IC50 [7]: > 66.6 µM (inactive)
